Measured values reported in patent US20260273012A1, “Camellia Oleifera Tea Oil Concentrate and Uses Thereof” (Laboratoires Expanscience, priority 2023, published 2026).

Columns and labels:
Assay type in all cases: cell-based
cortisol = experiment: Cortisol produced by skin explants stimulated by ACTH + 42° C. (ELISA); details: Metyrapone 1 mM
Protocol: Skin explants were treated topically with a formulation (cream) containing 1% tea oil concentrate, or its placebo, or treated systemically (in the culture medium) with 0.001% tea oil concentrate and the positive reference metyrapone at 1 mM. The explants were incubated for 24 hours then stressed with 0.6 μM ACTH (Adreno Corticotropic Hormone), a hormone that induces cortisol production. This stress was coupled with explant culture in a 42° C. incubator to potentiate the increase in cortisol production. The explants were again treated with topical products or the active ingredient and the positive reference systemically. After 24 hours of incubation, the culture media were recovered and an ELISA assay for cortisol was performed. The results were statistically analyzed by Student's test t.

[1] = tested on: dermal matrix markers (Collagen III, Fibrillin 1); experiment: Gene expression of dermal matrix markers in normal human dermal fibroblasts (real-time PCR); details: TGFβ 1 5 ng/ml, 48 hours
Protocol: The effect of tea oil concentrate on the expression of dermal matrix markers was evaluated in cultured normal human dermal fibroblasts.
Normal human dermal fibroblasts were incubated for 48 hours in the presence of 0.001% and 0.005% tea oil concentrate or 5 ng/ml TGFβ1, the positive reference of the test.
Gene expression of Collagen Ill and Fibrillin 1 was evaluated by quantitative real-time PCR. The results were statistically analyzed by one-way analysis of variance (ANOVA), followed by Dunnett's post-test.

[2] = tested on: interleukin-1 alpha (IL-1 alpha); experiment: IL-1 alpha produced by normal human keratinocytes under PMA-induced inflammatory stress (ELISA); details: Dexamethasone 0.1 μM, PMA 10 μg/ml
Protocol: (§1) The anti-inflammatory activity of tea oil concentrate (THE) was investigated by assaying interleukin-1 alpha (IL-1 alpha) produced by keratinocytes in response to pro-inflammatory stress induced by PMA (Phorbol-Myristate-Acetate) in a normal human keratinocyte model, in a reconstructed epidermis model subjected to PMA stress, as well as in a reconstructed epidermis model subjected to SDS (Sodium Dodecyl Sulfate) stress.
Normal human keratinocytes were pre-incubated for 24 hours in the presence of 0.001%, 0.005% or 0.01% tea tree oil concentrate or 0.1 μM dexamethasone, an anti-inflammatory reference. The cells were then stimulated by overnight treatment in the presence of 10 μg/mL PMA (Phorbol-Myristate-Acetate).
At the end of treatment, IL-1 alpha produced was quantified by ELISA assay in culture supernatants.
The results were statistically analyzed by one-way analysis of variance (ANOVA), followed by Tukey post-test.

Interleukin-1 alpha = experiment: IL-1 alpha produced by reconstructed epidermis stimulated by PMA; details: Dexamethasone 1 μM systemically; PMA 0.5 μg/mL
Protocol: as §1
(§2) Reconstructed epidermis were treated topically with a formulation (cream) containing 1% tea tree oil concentrate or its placebo, or systemically with 1 μM dexamethasone, an anti-inflammatory reference. After 24 hours of pre-incubation, epidermis were stimulated with 0.5 μg/mL of PMA and incubated again for 24 hours.
Culture subnatants were collected then IL-1 alpha assay was performed.
(§3) The results were statistically analyzed using ANOVA followed by Tukey's test.
as §2, with “μg/ml” for “μg/mL”, “hours. […]” for “hours.”

[3] = tested on: CXCL1, IL8, IL6, CCL2, SOD2, HAS2, MMP1, MMP3 gene expression in normal human dermal fibroblasts; experiment: Inflamm'aging model: gene expression in fibroblasts incubated with conditioned media of PMA-stimulated reconstructed epidermis; details: Dexa. 1 μM; control = 100
Protocol: Tea oil concentrate was evaluated in an in vitro model reproducing the process of “inflammaging”: inflammation, represented by the stimulation of IL-1 alpha production, is induced on reconstructed epidermis. The conditioned media of these reconstructed epidermis are then applied to fibroblasts and the expression of dermal markers, altered by IL1a produced by the epidermis, is evaluated.
as §2, with “μg/ml” for “μg/mL”
Culture subnatants were collected, IL-1 alpha assay was performed on the one hand, and on the other hand, these subnatants (conditioned media) were deposited on cultures of normal human dermal fibroblasts.
After 24 hours of incubation of fibroblasts in the presence of conditioned media, the expression of markers of interest was assessed by real-time quantitative PCR.
as §3

[4] = ACTH 0.6 μM + 42° C., Table 16 (systemic series)

Q: With CC(C)(C(=O)c1cccnc1)c1cccnc1 [Metyrapone, metyrapone] as the compound, how does the “Cortisol % Protection” value (cortisol; [4]) read?
A: 70%

Q: What about the “Cortisol Relative quantification” value (cortisol; [4]) of the same compound?
A: 1.08 ± 0.12

Q: And the “Cortisol Relative quantification” value (cortisol; ACTH 0.6 μM + 42° C., Table 17 (topical series))?
A: 1.08 ± 0.12

Q: And the “Cortisol % Protection (vs ACTH/42° C.)” value (cortisol; Table 17 (topical series))?
A: 73%

Q: How did the “Collagen III gene expression (Relative Quantity)” value [1] turn out when “TGFβ 1: the positive reference of the test” was run?
A: 1.55 ± 0.25

Q: And the “Fibrillin 1 gene expression (Relative Quantity)” value [1]?
A: 1.53 ± 0.18

Q: What about the “Collagen III gene expression % induction” value ([1]; vs control cells) of the same compound?
A: +78% p < 0.05

Q: And the “Fibrillin 1 gene expression % induction” value ([1]; vs control cells)?
A: +74% p < 0.05

Q: What does the source list for C[C@@H]1C[C@H]2[C@@H]3CCC4=CC(=O)C=C[C@]4(C)[C@@]3(F)[C@@H](O)C[C@]2(C)[C@@]1(O)C(=O)CO [Dexamethasone, dexamethasone]?
A: IL-1 alpha ([2]; 24 h pre-incubation): 66.6 ± 0.5 pg/mL; Protection (%) [2]: 74%; % Protection (Interleukin-1 alpha): 48%; Interleukin-1 alpha (Interleukin-1 alpha): 334 ± 41 pg/mL; CCL2 expression level in relative quantity [3]: 193; CXCL1 expression level in relative quantity [3]: 1503; HAS2 expression level in relative quantity [3]: 104; IL6 expression level in relative quantity [3]: 305; IL8 expression level in relative quantity [3]: 1350; MMP1 expression level in relative quantity [3]: 52; MMP3 expression level in relative quantity [3]: 74; SOD2 expression level in relative quantity [3]: 354
